Experimental data taken from patent US11939331B2, “Tricyclic heterocycles as FGFR inhibitors” (Incyte Corporation, priority 2021, dated 2024).
pIC50: −log10 of the molar value.

biological target: wild-type un-phosphorylated FGFR3 protein (Homo sapiens, UniProt P22607); experiment: FGFR Enzymatic Assay (FRET peptide phosphorylation)
Sequence (P22607 23-806): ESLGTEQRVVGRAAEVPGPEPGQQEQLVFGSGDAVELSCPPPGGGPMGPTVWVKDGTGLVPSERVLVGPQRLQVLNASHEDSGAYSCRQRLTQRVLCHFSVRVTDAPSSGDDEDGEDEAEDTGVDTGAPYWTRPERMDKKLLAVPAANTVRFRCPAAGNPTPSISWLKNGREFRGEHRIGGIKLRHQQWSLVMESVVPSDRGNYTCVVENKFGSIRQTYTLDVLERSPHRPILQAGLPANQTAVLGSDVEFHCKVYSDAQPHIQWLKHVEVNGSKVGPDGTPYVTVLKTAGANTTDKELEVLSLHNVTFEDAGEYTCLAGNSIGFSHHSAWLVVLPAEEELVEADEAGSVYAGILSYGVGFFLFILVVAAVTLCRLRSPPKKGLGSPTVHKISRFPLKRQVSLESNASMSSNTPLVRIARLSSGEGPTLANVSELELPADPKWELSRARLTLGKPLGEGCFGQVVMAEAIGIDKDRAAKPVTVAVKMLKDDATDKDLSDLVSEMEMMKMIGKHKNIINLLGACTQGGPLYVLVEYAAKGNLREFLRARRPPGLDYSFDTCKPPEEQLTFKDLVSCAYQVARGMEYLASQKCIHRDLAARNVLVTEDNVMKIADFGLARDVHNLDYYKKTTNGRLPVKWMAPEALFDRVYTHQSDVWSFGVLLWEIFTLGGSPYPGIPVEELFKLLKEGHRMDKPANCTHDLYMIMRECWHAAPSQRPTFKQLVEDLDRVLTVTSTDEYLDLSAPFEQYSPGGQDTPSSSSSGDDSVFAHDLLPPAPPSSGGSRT
Protocol: The inhibitor potency of the exemplified compounds was determined in an enzyme discontinuous assay that measures peptide phosphorylation using FRET measurements to detect product formation. Inhibitors were serially diluted in DMSO and a volume of 0.2 μL was transferred to the wells of a 384-well plate. A 5 μL/well volume of enzyme isoforms of FGFR (-1, -2, -3 wild-type and mutant isoforms, -4) including phosphorylated and un-phosphorylated proteins diluted in assay buffer (50 mM HEPES, 10 mM MgCl2, 1 mM EGTA, 0.01% Tween-20, 5 mM DTT, pH 7.5) was added to the plate and pre-incubated with inhibitor for 5 to 15 minutes at ambient temperature. Appropriate controls (enzyme blank and enzyme with no inhibitor) were included on the plate. The reaction was initiated by the addition of a 5 μL/well volume containing both biotinylated [sequence] peptide substrate (SEQ ID NO: 1) and ATP in assay buffer. The 10 μL/well reaction concentration of the peptide substrate was 500 nM whereas the ATP concentration was maintained near or below the ATP Km. The ATP Km values were pre-determined in a separate series of experiments. The reaction plate was incubated at 25° C. for 1 hr and the reactions were ended with the addition of 5 μL/well of quench solution (50 mM Tris, 150 mM NaCl, 0.5 mg/mL BSA, pH 7.8; 45 mM EDTA, 600 nM staurosporin, with Perkin Elmer Lance Reagents at 3.75 nM Eu-antibody PY20 and 180 nM APC-Streptavidin). The plate was allowed to equilibrate for ˜10 minutes at ambient temperature before scanning on a PheraStar plate reader (BMG Labtech) instrument.
Either GraphPad prism or XLfit was used to analyze the data. The IC50 values were derived by fitting the data to a four parameter logistic equation producing a sigmoidal dose-response curve with a variable Hill coefficient. Prism equation: Y=Bottom+(Top−Bottom)/(1+10^((Log IC50−X)*Hill slope)); XLfit equation: Y=(A+((B−A)/(1+((X/C)^D)))) where X is the logarithm of inhibitor concentration and Y is the response.

| Compound | pIC50 |
| --- | --- |
| NC(=O)c1c(-c2c(Cl)cccc2Cl)nc2c3cc(-c4cnn(CC(F)(F)F)c4)cnc3ccn12 [Example 33, 2-(2,6-Dichlorophenyl)-9-(1-(2,2,2-trifluoroethyl)-1H-pyrazol-4-yl)imidazo[2,1-f][1,6]naphthyridine-3-carboxamide] | > 10.00 |
| CN(C)CCn1cc(-c2cnc3ccn4c(C(N)=O)c(-c5c(Cl)cccc5Cl)nc4c3c2)cn1 [Example 34, 2-(2,6-Dichlorophenyl)-9-(1-(2-(dimethylamino)ethyl)-1H-pyrazol-4-yl)imidazo[2,1-f][1,6]naphthyridine-3-carboxamide] | > 10.00 |
| COCC(C)(C)n1cc(-c2cnc3ccn4c(C(N)=O)c(-c5c(Cl)cccc5Cl)nc4c3c2)cn1 [Example 35, 2-(2,6-Dichlorophenyl)-9-(1-(1-methoxy-2-methylpropan-2-yl)-1H-pyrazol-4-yl)imidazo[2,1-f][1,6]naphthyridine-3-carboxamide] | > 10.00 |
| CC(O)Cn1cc(-c2cnc3ccn4c(C(N)=O)c(-c5c(Cl)cccc5Cl)nc4c3c2)cn1 (centres unmarked) [Example 36, 2-(2,6-Dichlorophenyl)-9-(1-(2-hydroxypropyl)-1H-pyrazol-4-yl)imidazo[2,1-f][1,6]naphthyridine-3-carboxamide] | > 10.00 |
| CN(C)CCCn1cc(-c2cnc3ccn4c(C(N)=O)c(-c5c(Cl)cccc5Cl)nc4c3c2)cn1 [Example 37, 2-(2,6-Dichlorophenyl)-9-(1-(3-(dimethylamino)propyl)-1H-pyrazol-4-yl)imidazo[2,1-f][1,6]naphthyridine-3-carboxamide] | > 10.00 |
| NC(=O)c1c(-c2c(Cl)cccc2Cl)nc2c3cc(-c4ccc(=O)[nH]c4)cnc3ccn12 [Example 39, 2-(2,6-Dichlorophenyl)-9-(6-oxo-1,6-dihydropyridin-3-yl)imidazo[2,1-f][1,6]naphthyridine-3-carboxamide] | 9.00 to 10.00 |
| CC(C)c1[nH]ncc1-c1cnc2ccn3c(C(N)=O)c(-c4c(Cl)cccc4Cl)nc3c2c1 [Example 40, 2-(2,6-Dichlorophenyl)-9-(5-isopropyl-1H-pyrazol-4-yl)imidazo[2,1-f][1,6]naphthyridine-3-carboxamide] | 8.00 to 9.00 |
| NC(=O)c1c(-c2c(Cl)cccc2Cl)nc2c3cc(-c4cnn5c4CCC5)cnc3ccn12 [Example 41, 2-(2,6-Dichlorophenyl)-9-(5,6-dihydro-4H-pyrrolo[1,2-b]pyrazol-3-yl)imidazo[2,1-f][1,6]naphthyridine-3-carboxamide] | 9.00 to 10.00 |
| CC(C)(O)c1cncc(-c2cnc3ccn4c(C(N)=O)c(-c5c(Cl)cccc5Cl)nc4c3c2)c1 [Example 42, 2-(2,6-Dichlorophenyl)-9-(5-(2-hydroxypropan-2-yl)pyridin-3-yl)imidazo[2,1-f][1,6]naphthyridine-3-carboxamide] | 8.00 to 9.00 |
| CNc1ncc(-c2cnc3ccn4c(C(N)=O)c(-c5c(Cl)cccc5Cl)nc4c3c2)cn1 [Example 43, 2-(2,6-Dichlorophenyl)-9-(2-(methylamino)pyrimidin-5-yl)imidazo[2,1-f][1,6]naphthyridine-3-carboxamide] | 9.00 to 10.00 |
| NC(=O)c1c(-c2c(Cl)cccc2Cl)nc2c3cc(-c4cnn(C5CCOC5)c4)cnc3ccn12 (centres unmarked) [Example 44, 2-(2,6-Dichlorophenyl)-9-(1-(tetrahydrofuran-3-yl)-1H-pyrazol-4-yl)imidazo[2,1-f][1,6]naphthyridine-3-carboxamide] | > 10.00 |
| NC(=O)c1c(-c2c(Cl)cccc2Cl)nc2c3cc(-c4cnn(CCN5CCOCC5)c4)cnc3ccn12 [Example 45, 2-(2,6-Dichlorophenyl)-9-(1-(2-morpholinoethyl)-1H-pyrazol-4-yl)imidazo[2,1-f][1,6]naphthyridine-3-carboxamide] | 9.00 to 10.00 |
| CN1CCN(CCn2cc(-c3cnc4ccn5c(C(N)=O)c(-c6c(Cl)cccc6Cl)nc5c4c3)cn2)CC1 [Example 46, 2-(2,6-Dichlorophenyl)-9-(1-(2-(4-methylpiperazin-1-yl)ethyl)-1H-pyrazol-4-yl)imidazo[2,1-f][1,6]naphthyridine-3-carboxamide] | 9.00 to 10.00 |
| NC(=O)c1c(-c2c(Cl)cccc2Cl)nc2c3cc(-c4cnn(CCCO)c4)cnc3ccn12 [Example 47, 2-(2,6-Dichlorophenyl)-9-(1-(3-hydroxypropyl)-1H-pyrazol-4-yl)imidazo[2,1-f][1,6]naphthyridine-3-carboxamide] | > 10.00 |
| N#CCCn1cc(-c2cnc3ccn4c(C(N)=O)c(-c5c(Cl)cccc5Cl)nc4c3c2)cn1 [Example 48, 9-(1-(2-Cyanoethyl)-1H-pyrazol-4-yl)-2-(2,6-dichlorophenyl)imidazo[2,1-f][1,6]naphthyridine-3-carboxamide] | > 10.00 |
| NC(=O)Cn1cc(-c2cnc3ccn4c(C(N)=O)c(-c5c(Cl)cccc5Cl)nc4c3c2)cn1 [Example 49, 9-(1-(2-Amino-2-oxoethyl)-1H-pyrazol-4-yl)-2-(2,6-dichlorophenyl)imidazo[2,1-f][1,6]naphthyridine-3-carboxamide] | > 10.00 |
| CC(C)(O)c1ccc(-c2cnc3ccn4c(C(N)=O)c(-c5c(Cl)cccc5Cl)nc4c3c2)cn1 [Example 50, 2-(2,6-Dichlorophenyl)-9-(6-(2-hydroxypropan-2-yl)pyridin-3-yl)imidazo[2,1-f][1,6]naphthyridine-3-carboxamide] | 9.00 to 10.00 |
| NC(=O)c1c(-c2c(Cl)cccc2Cl)nc2c3cc(-c4ccc(CC(F)(F)F)nc4)cnc3ccn12 [Example 51, 2-(2,6-Dichlorophenyl)-9-(6-(2,2,2-trifluoroethyl)pyridin-3-yl)imidazo[2,1-f][1,6]naphthyridine-3-carboxamide] | 9.00 to 10.00 |
| CNC(=O)c1ccc(-c2cnc3ccn4c(C(N)=O)c(-c5c(Cl)cccc5Cl)nc4c3c2)cn1 [Example 52, 2-(2,6-Dichlorophenyl)-9-(6-(methylcarbamoyl)pyridin-3-yl)imidazo[2,1-f][1,6]naphthyridine-3-carboxamide] | 9.00 to 10.00 |
| NC(=O)c1c(-c2c(Cl)cccc2Cl)nc2c3cc(C4=CCC(O)CC4)cnc3ccn12 (centres unmarked) [Example 53, 2-(2,6-Dichlorophenyl)-9-(4-hydroxycyclohex-1-en-1-yl)imidazo[2,1-f][1,6]naphthyridine-3-carboxamide] | > 10.00 |
| CC(C)(O)c1cnc2ccn3c(C(N)=O)c(-c4c(Cl)cccc4Cl)nc3c2c1 [Example 55, 2-(2,6-Dichlorophenyl)-9-(2-hydroxypropan-2-yl)imidazo[2,1-f][1,6]naphthyridine-3-carboxamide] | 7.30 to 8.00 |
| Cc1nc2c3cc(-c4cnn(C5CCOCC5)c4)cnc3ccn2c1C(N)=O [Example 57, 2-Methyl-9-(1-(tetrahydro-2H-pyran-4-yl)-1H-pyrazol-4-yl)imidazo[2,1-f][1,6]naphthyridine-3-carboxamide] | 7.30 to 8.00 |
| NC(=O)c1cnc2c3cc(-c4cnn(C5CCOCC5)c4)cnc3ccn12 [Example 58, 9-(1-(Tetrahydro-2H-pyran-4-yl)-1H-pyrazol-4-yl)imidazo[2,1-f][1,6]naphthyridine-3-carboxamide] | 7.30 to 8.00 |
